The target in one assay is T1, rhELA2 (Homo sapiens, UniProt P08246).
T1 sequence (P08246 30-267): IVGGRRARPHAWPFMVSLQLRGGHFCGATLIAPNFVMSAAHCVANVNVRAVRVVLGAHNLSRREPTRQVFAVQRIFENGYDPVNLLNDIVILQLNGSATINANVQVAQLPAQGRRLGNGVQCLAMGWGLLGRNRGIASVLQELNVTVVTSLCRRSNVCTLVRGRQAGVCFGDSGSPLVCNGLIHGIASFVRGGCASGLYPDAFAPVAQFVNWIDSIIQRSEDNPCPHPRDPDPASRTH
Kind of assay: Neutrophil elastase (rhELA2) fluorescence inhibition assay. The conditions noted are these: rhELA2 activated with DPPI; 30 min preincubation, 1 hr with substrate, fluorescence 360 nm/450 nm. The format is biochemical. The procedure: Compound preparation: All compounds were dissolved in DMSO at a concentration of 10 mM, and stored at −20° C.
A 1× assay buffer was prepared. […] 1 μL of the serially diluted compound and 65.67 μL of the assay buffer were added into a plate, to obtain 3× working solutions of the positive compound and the test compounds (the final concentration in DMSO was 1.5%). The plate was sealed with a sealing film and shaken on an oscillator for 15 min.
A 1× activation buffer was prepared. rhELA2 was diluted in the activation buffer containing DPPI and incubated at 37° C. for 2 hrs to activate rhELA2. 5 μl of the 3× diluted working solutions of the compound was added to a 384-well plate. rhELA2 was diluted with the 1× assay buffer, to obtain a 3× working solution of rhELA2. 5 μl of the 3× working solution of rhELA2 was added to each well of the 384-well plate. The plate was sealed and incubated for 30 min at room temperature in the dark.
A 3× substrate solution was prepared in the 1× assay buffer. 5 μl of the 3× working solution of the substrate was added into the 384-well plate. The 384-well plate was centrifuged at 1000 rpm for 1 min, and incubated for 1 hr at room temperature in the dark. The fluorescence value FLU at 360 nm/450 nm was read on a plate reader.
The inhibition rate % was calculated. Inhibition rate=(1−(FLU of the compound−FLU of the positive well)/(FLU of the reference well−FLU of the positive well)). FLU of the reference well is that of a well with only the enzyme and no the inhibitor, and FLU of the positive well is that of a well with the enzyme and 3000 nm Sivelestat-2. Then the IC50 value was calculated by the formula Y=Bottom+(Top−Bottom)/(1+10^((LogIC50−X)*HillSlope)) using Graphpad 8.0 software.

Assay [1] deals with rat model of hydrochloric acid-induced acute lung injury. The assay is described as follows: Animal Test 2: rat model of hydrochloric acid-induced acute lung injury. The format is in vivo, rats. The procedure:
Animal grouping: 4 groups, each group having 8 animals.
Establishment of rat model of hydrochloric acid-induced acute lung injury: 0.1 N HCL was sprayed into the trachea of rats at a dosage of 0.1 mL/rat.
Both groups were administered twice by tail vein injection, immediately after the model establishment and again 2.5 hrs after the model establishment.
The rats were sacrificed 5 h after the model establishment. Alveolar lavage was performed. The inflammatory cells, protein exudation, pulmonary hemorrhage and NE enzyme activity in the lavage fluid were measured.

Assay [2] relates to mouse model of LPS-induced acute lung injury. Kind of assay: Animal Test 1: mouse model of LPS-induced acute lung injury. The format is in vivo, ICR mice. As to conditions: for Content of inflammatory factor IL-1β (Mean ± SD) / Content of inflammatory factor TNF-α (Mean ± SD): left lung homogenate supernatant, 24 h after LPS, i.v. 25 mg/kg at 0.5 h, 4 h and 12 h, total 75 mg/kg. The procedure:
Test animals: ICR mice, SPF grade, male, weight at the time of administration: 25-28 g.
Animal grouping: 4 groups, each group having 10 animals.
Establishment of mouse model of LPS-induced acute lung injury: The mice were anesthetized by intramuscular injection of Zoletil®50 (0.05 mL/mouse). Then the mice were fixed in a supine position, the cervical trachea was isolated, and lipopolysaccharide (LPS) (1 mg/mL, 35 μL/mouse) was sprayed by a high-pressure atomizing nozzle. The neck skin was sutured, and disinfected with iodophor.
The dosage at each administration was 25 mg/kg, and the total daily dosage was 75 mg/kg.
24 h after LPS was sprayed into the trachea of mice, the mice were sacrificed, and the trachea was isolated and intubated. The left lung lobe was ligated. The lung lavage was carried out with 0.5 mL normal saline (containing 1% serum and 2 U/mL heparin), and then the process was repeated two times. The lavage fluids of the 3 times were mixed and stood on ice for later use. The ligated left lung lobe was removed from the animal Nos. 1-8 in the blank control group, the model group, the test group and the positive control group respectively, weighed, added with 0.9% NaCl at a ratio of 1:6, homogenized at 4° C. and centrifuged at 10000 rpm for 10 min. The supernatant was collected and the contents of inflammatory factors IL-1B and TNF-α were determined.

[3] abbreviates: alveolar lavage fluid 5 h after model establishment, tail vein injection twice, total 120 mg/kg.
Setting [4] is: alveolar lavage fluid 5 h after model establishment, tail vein injection twice, total 30 mg/kg.

Usually IC50 stands for the concentration needed to halve the response being measured.

The structures appear in SMILES notation.

`Cn1nccc1-c1ccc(NS(=O)(=O)c2ccc(OC(=O)C(C)(C)C)cc2)c(C(=O)NCC(=O)O)c1` [Compound 1, (5-(1-methyl-1H-pyrazol-5-yl)-2-((4-(pivaloyloxy)phenyl)sulfonamido)benzoyl)glycine]: at rhELA2, the midpoint of inhibition, the IC50, lay at 20.4 nM.

As to `Cn1cc(-c2ccc(NS(=O)(=O)c3ccc(OC(=O)C(C)(C)C)cc3)c(C(=O)NCC(=O)O)c2)cn1` [Compound 2], the IC50 against rhELA2 amounted to 30.5 nM.

`CC(C)(C)C(=O)Oc1ccc(S(=O)(=O)Nc2ccc(-n3ccnc3)cc2C(=O)NCC(=O)O)cc1` [Compound 3]: the IC50 at rhELA2 turned out to be 23.6 nM.

Compound `CC(C)(C)C(=O)Oc1ccc(S(=O)(=O)N[C@@H]2CCC(F)(F)C[C@@H]2C(=O)NCC(=O)O)cc1` [Compound 6] gave an IC50 against rhELA2 of 32.8 nM.

Take `CC(C)(C)C(=O)Oc1ccc(S(=O)(=O)Nc2ccc(-c3cnoc3)cc2C(=O)NCC(=O)O)cc1` [Compound 11]: inhibition against rhELA2 was half-maximal at 27 nM (IC50).

For the compound `CC(C)(C)C(=O)Oc1ccc(S(=O)(=O)Nc2ccccc2C(=O)NCP(=O)(O)O)cc1` [Compound 12, ((2-((4-(pivaloyloxy)phenyl)sulfonamido)benzamido)methyl)phosphonic acid], half-maximal inhibition against rhELA2 (IC50) required 5.69 nM. Compared with the last compound, the IC50 is about 4.7-fold lower.

At rhELA2, `CC(C)(C)C(=O)Oc1ccc(S(=O)(=O)Nc2ccccc2C(=O)NCCS(=O)(=O)O)cc1` [Compound 13, 2-(2-((4-(pivaloyloxy)phenyl)sulfonamido)benzamido) ethan-1-sulfonic acid] registered an IC50 of 4.22 nM.

`COc1ccc(NS(=O)(=O)c2ccc(OC(=O)C(C)(C)C)cc2)c(C(=O)NCC(=O)O)c1` [Compound 17] returned an IC50 on rhELA2 of 15.3 nM.

Regarding `CC(C)(C)C(=O)Oc1ccc(S(=O)(=O)Nc2ccccc2C(=O)N[C@H](CF)C(=O)O)cc1` [Compound 19], the IC50 on rhELA2 is 2.25 nM.

For `COC[C@@H](NC(=O)c1ccccc1NS(=O)(=O)c1ccc(OC(=O)C(C)(C)C)cc1)C(=O)O` [Compound 20], the IC50 against rhELA2 turned out to be 2.47 nM. Further, the “improvement of pulmonary hemorrhage, reduction of protein exudation and white blood cell count in alveolar lavage fluid, compared with Sivelestat sodium” value in assay [1] (Compound 20 120 mg/kg vs Sivelestat sodium 30 mg/kg) is given as “more obviously compared with Sivelestat sodium”. In addition, in assay [1] (setting [3]), the “Protein content in alveolar lavage fluid” value turned out to be 0.30 ± 0.05 mg/mL; the “Pulmonary hemorrhage (IOD, absorbance at 412 nm)” value is listed as 0.20 ± 0.03; the “White blood cell count (WBC, 1 × 10^6 cell/mL)” value is listed as 0.28 ± 0.10 ** 1 × 10^6 cell/mL. Further, in assay [2] (both 75 mg/kg total, i.v.), the “inhibitory effects on inflammatory factors IL-1B and TNF-α, compared with Sivelestat sodium” value is on record as “significantly better than those of Sivelestat sodium”. In assay [2], the “Content of inflammatory factor IL-1β (Mean ± SD)” value came out at 784 ± 159 pg/mL and the “Content of inflammatory factor TNF-α (Mean ± SD)” value came out at 442 ± 118 pg/mL.

`C[C@@H](NC(=O)c1cc(F)ccc1NS(=O)(=O)c1ccc(OC(=O)C(C)(C)C)cc1)C(=O)O` [Compound 21] had an IC50 against rhELA2 of 2.26 nM.

As to `C[C@@H](NC(=O)c1cc(C#N)ccc1NS(=O)(=O)c1ccc(OC(=O)C(C)(C)C)cc1)C(=O)O` [Compound 22], at rhELA2, it took 2.2 nM to reach half-maximal inhibition (IC50).

For the compound `C[C@@H](NC(=O)c1ccccc1NS(=O)(=O)c1ccc(OC(=O)C(C)(C)C)c(F)c1)C(=O)O` [Compound 23], on rhELA2, the midpoint of inhibition, the IC50, lay at 3.69 nM.

`COC[C@@H](NC(=O)c1cc(C#N)ccc1NS(=O)(=O)c1ccc(OC(=O)C(C)(C)C)cc1)C(=O)O` [Compound 24]: inhibition against rhELA2 was half-maximal at 1.5 nM (IC50).

`[2H]C([2H])([2H])OC[C@@H](NC(=O)c1ccccc1NS(=O)(=O)c1ccc(OC(=O)C(C)(C)C)cc1)C(=O)O` [Compound 25, O-(methyl-d3)-N-(2-((4-(pivaloyloxy)phenyl)sulfonamido)benzoyl)-D-serine] registered an IC50 at rhELA2 of 2.54 nM.

On rhELA2, `COC[C@H](NC(=O)c1ccccc1NS(=O)(=O)c1ccc(OC(=O)C(C)(C)C)cc1)C(=O)O` [Compound 26] had an IC50 of 8.49 nM. This IC50 is about 3.3-fold higher than that of the compound before.

On rhELA2, `CSCC(NC(=O)c1ccccc1NS(=O)(=O)c1ccc(OC(=O)C(C)(C)C)cc1)C(=O)O` (centres unmarked) [Compound 27] registered an IC50 of 130 nM.

On to `CC(C)(C)C(=O)Oc1ccc(S(=O)(=O)Nc2ccccc2C(=O)NCC(=O)O)cc1` [Sivelestat sodium, reference compound], for which, in assay [1] (setting [4]), the “Protein content in alveolar lavage fluid (mg/mL)” value is recorded as 0.35 ± 0.07 **^ mg/mL; the “Pulmonary hemorrhage (IOD, absorbance at 412 nm)” value is recorded as 0.25 ± 0.10; the “White blood cell count (WBC, 1 × 10^6 cell/mL)” value is recorded as 0.42 ± 0.11 1 × 10^6 cell/mL. In addition, in assay [2], the “Content of inflammatory factor IL-1β (Mean ± SD)” value is 1048 ± 384 ^ pg/mL and the “Content of inflammatory factor TNF-α (Mean ± SD)” value was determined as 552 ± 77 pg/mL.
